{
  "source": "paper PMC8231349",
  "about": "(Journal of Enzyme Inhibition and Medicinal Chemistry, 2021)",
  "key": {"[1]": {"test_system": "human prostate cancer cells (DU145)", "assay": "MTT cell viability assay, DU145", "format": "cell-based", "conditions": "72 h", "protocol": "(§1) Experiments were performed on human prostate cancer cells (DU145; ATCC HTB-81), human lung cancer cells (A549; ATCC CCL-185-LUC2) and human bronchial epithelium cells (BEAS-2B; ATCC CRL-9609). Cells were grown in Dulbecco's modified Eagle's medium (DMEM) supplemented with 10% of heat-inactivated foetal bovine serum (FBS), 100 U/ml penicillin and 100 μg/ml streptomycin (Sigma-Aldrich, Steinheim, Germany). Cells were incubated at 37 °C in a humidified atmosphere with 5% CO2. […] Cells were seeded into 96-well plates at a density of 7,0 × 10[3] cells/well in 100 µl of culture medium. After 24 h, cells were treated with the compounds at three different concentrations (1 µM, 10 µM and 50 µM) for 72 h. Following treatments, 0.5 mg/ml of 3-[4,5-dimethylthiazol-2-yl]-2,5-diphenyltetrazolium bromide (MTT) (Sigma Aldrich) was added to each well and incubated for 4 h at 37 °C. Finally, DMSO was used to dissolve formazan salts and absorbance was measured at 570 nm in a microplate reader (Biotek Synergy-HT). […]\n(§2) Compound 3 was preliminarily assessed for its cytotoxic activity towards human prostate and lung cancer cell lines (DU145 and A549, respectively), in which the overexpression of the HO-1 has been confirmed[46]^,[47]. […] Cell survival was calculated compared to untreated controls for 72 h. At the end of treatment, cell viability was evaluated using the MTT assay. […]"}, "[2]": {"test_system": "human lung cancer cells (A549)", "assay": "MTT cell viability assay, A549", "format": "cell-based", "conditions": "72 h", "protocol": "as §1, §2"}, "[3]": {"set-up": "method as in PMID 29454190", "conditions": "predicted; ref [34]; cited from earlier work"}, "[4]": {"set-up": "method as in PMID 29454190", "conditions": "predicted, ref [34], cited from earlier work"}, "[5]": {"biological_target": "T1, HO-1 (Rattus norvegicus, UniProt P06762)", "T1 construct": "selected in order to use the most native (i.e. closest to in vivo) forms of HO-1; from tissue; host or cells: rat spleen microsomal fraction (male Sprague-Dawley rats)", "T1 sequence (P06762 1-289)": "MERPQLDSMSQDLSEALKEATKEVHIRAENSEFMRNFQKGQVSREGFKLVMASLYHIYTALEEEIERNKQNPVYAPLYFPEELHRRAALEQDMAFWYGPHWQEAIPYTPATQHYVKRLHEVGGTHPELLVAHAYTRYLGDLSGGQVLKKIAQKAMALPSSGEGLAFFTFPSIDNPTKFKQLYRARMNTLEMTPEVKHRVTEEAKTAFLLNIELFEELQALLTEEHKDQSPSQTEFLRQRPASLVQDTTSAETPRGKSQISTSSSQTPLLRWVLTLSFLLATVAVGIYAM", "assay": "HO-1 enzymatic activity in the microsomal fraction of rat spleen (bilirubin formation)", "format": "biochemical", "conditions": "mean ± SD of triplicate assays", "protocol": "Since the dominance of HO-1 protein in the rat spleen has been well documented, HO-1 was obtained from rat spleen as the microsomal fraction prepared by differential centrifugation. This particular microsomal preparation was selected in order to use the most native (i.e. closest to in vivo) forms of HO-1. Spleen (Sprague-Dawley rats) microsomal fractions were prepared according to the procedure outlined by Ryter et al.[33]. The experiments reported in the present paper complied with current Italian law and met the guidelines of the Institutional Animal Care and Use Committee of […] OF HEALTH (Directorate General for Animal Health and Veterinary Medicines) (Italy). […]\nLiver cytosol has been used as a source of BVR. […] The 100,000 g supernatant was saved and then stored in small amounts at −80 °C after its protein concentration was measured.\nThe HO-1 activity was determined by measuring the bilirubin formation using the difference in absorbance at 464 to 530 nm as described by Ryter et al.[33]. […] After recovering the chloroform phase, the amount of bilirubin formed was measured with a double-beam spectrophotometer as OD464-530 nm (extinction coefficient, […] for bilirubin). […]\nInhibition activity assay for HO-1 was performed by extracting the enzyme from the rat spleen microsomal fraction. […] Results are expressed as enzyme inhibition activity (IC50) in μM (Table S2, Supplemental material)."}, "[6]": {"assay": "Chemical stability of 3 in buffer solutions at different pHs (HPLC)", "format": "physicochemical", "conditions": "37 °C", "protocol": "The HPLC analysis of samples at various time intervals from in vitro stability in different buffers and porcine esterase solution was performed on Shimadzu Prominence-i LC-2030C 3 D Plus equipped with RID20A. Detector chromatographic separation were carried out using Chromolith SpeedROD RP […], Merck. Spectra were analysed in 200–800 nm range with 1.2 nm resolution. The column was maintained at 30 °C and eluted under gradient conditions from 100% to 0% of eluent A over 3 min, at a flow rate of 5 ml min^−1. Eluent A: water/trifluoroacetic acid (0.1%, v/v); eluent B: acetonitrile/ trifluoroacetic acid (0.1%, v/v).\nA stock solution of compound 3 in DMSO (3.0 mg/mL) was prepared. To a test tube containing 0.9 ml of the corresponding Acetate (pH = 2.0) or PBS buffer solution (pH = 7.4 and 8.0, respectively), 0.1 ml of stock solution was added, and the mixture stirred and thermostated in a sand bath at 37 °C. Aliquots (0.1 ml) were withdrawn at specific time intervals and transferred to sample vials containing acetonitrile (0.9 ml). The percentage of compound remaining was followed by HPLC analysis. The retention time (tR) of compound 1, 2, and 3 were 0.74, 0.89, and 0.95 min, respectively. All the experiments were performed in triplicate.\n0.001 g of lyophilised powder of esterase from the porcine liver (Sigma-Aldrich, St. Louis, Missouri, USA) was reconstituted in 1.0 ml PBS buffer (0.01 M, pH 7.4) to make an aqueous porcine esterase solution (5 U/mL), and then pre-thermostated at 37 °C. To a test tube containing 1.85 ml of PBS buffer, 0.15 ml from the stock solution of the test compound was added. The mixture was then stirred and thermostated in a sand bath at 37 °C, and 1.0 ml of the porcine esterase solution was added to initiate the enzymatic reaction. For the negative control reaction, the volume of porcine esterase solution was replaced by phosphate buffer. Aliquots (0.3 ml) were withdrawn at 0, 30, 60, 120, 180, and 240 min, and quenched with cold acetonitrile (0.7 ml)[28]. The samples were centrifuged for 6 min at 10,000 rpm, and supernatants were analysed by HPLC to check the amounts (area under the curve, AUC) of the remaining intact compound. All the experiments were performed in triplicate. Pseudo-first-order rate constant for the hydrolysis was determined from the slope of linear plots of the natural logarithm (ln) of the AUC of the peak at time t (AUCt) against time. Half-life (t1/2) was calculated according to Equation (1): (1) t1/2 = ln 2/k were k is the pseudo-first-order rate constant.\nThe chemical stability of 3 was evaluated at different pH values to mimic physiological conditions, including gastrointestinal (GI) tract (pH = 2.0), human plasma (pH = 7.4), and pancreatic fluid (pH = 8.0). As a result, the pH value strongly affected the chemical stability and hydrolysis rate of the hybrid 3 (Figure 2)."}},
  "note": "“And” between values parts separate entries of the source, which are not always exact repeats. Equal entries are not always repeated.",
  "data": [
    {"smiles": "O=c1[nH]cc(F)c(=O)[nH]1", "note": "[Compound 5-FU, 5-Fluorouracil, reference compound]", "values": [
      {"measurement": "IC50", "setting": "[1]; Homo sapiens, DU-145, DU145 cells, MTT", "result": "31.7 ± 0.92", "unit": "µM"},
      {"measurement": "IC50", "setting": "[2]; Homo sapiens, A549 cells, MTT", "result": "0.98 ± 0.13", "unit": "µM"}
    ]},
    {"smiles": "OC(Cn1ccnc1)c1cccc(Br)c1", "note": "(centres unmarked) [Compound 1, 1–(3-bromophenyl)-2-(1H-imidazol-1-yl)ethanol]", "values": [
      {"measurement": "Toxicity prediction: Irritant", "setting": "[3]", "result": "none"},
      {"measurement": "Toxicity prediction: Mutagenic", "setting": "[3]", "result": "none"},
      {"measurement": "Toxicity prediction: Reproductive Effects", "setting": "[3]", "result": "none"},
      {"measurement": "Toxicity prediction: Tumorigenic", "setting": "[3]", "result": "none"},
      {"measurement": "Effect on cell viability", "setting": "[1]; DU145 cells, 1, 10 and 50 μM", "result": "no cytotoxic effect"},
      {"measurement": "Effect on cell viability", "setting": "[2]; A549 cells, 1, 10 and 50 μM", "result": "no cytotoxic effect"},
      {"measurement": "HIA (%)", "setting": "[4]; human intestinal absorption", "result": 96.1, "unit": "%"},
      {"measurement": "Papp", "setting": "[4]; in vitro Caco-2 cell permeability", "result": 2.96, "unit": "×10⁻⁶ cm/s"},
      {"measurement": "PPB (%)", "setting": "[4]; in vitro plasma protein binding", "result": 65, "unit": "%"},
      {"measurement": "BBB (Cbrain/Cblood)", "setting": "[4]; in vivo blood-brain barrier penetration", "result": 0.7, "unit": "Cbrain/Cblood"}
    ]},
    {"smiles": "O=C(O)CCC(=O)OC(Cn1ccnc1)c1cccc(Br)c1", "note": "(centres unmarked) [Compound 2, 4‐[1‐(3‐bromophenyl)‐2‐(1H‐imidazol‐1‐yl)ethoxy]‐4‐oxobutanoic acid]", "values": [
      {"measurement": "IC50", "setting": "[5]", "result": "105 ± 5.8", "unit": "µM"},
      {"measurement": "melting point", "result": "64 to 66.5", "unit": "°C"}
    ]},
    {"smiles": "O=C(CCC(=O)OC(Cn1ccnc1)c1cccc(Br)c1)OCn1cc(F)c(=O)[nH]c1=O", "note": "(centres unmarked) [Compound 3, 1‐[1‐(3‐bromophenyl)‐2‐(1H‐imidazol‐1‐yl)ethyl]4‐(5‐fluoro‐2,4‐dioxo‐1,2,3,4‐tetrahydropyrimidin‐1‐yl)methyl butanedioate]", "values": [
      {"measurement": "IC50", "setting": "[5]", "result": "82 ± 2.1", "unit": "µM"},
      {"measurement": "half-life at 0.15 mg/mL", "setting": "[6]; PBS buffer without esterase, PBS buffer (pH = 7.4), no esterase, read-out: Half-life (t1/2) of hydrolysis", "result": 28.1, "unit": "h"},
      {"measurement": "% Compound remaining", "setting": "[6]; pH = 2.0, 0 h", "result": "100 ± 0.0", "unit": "%"},
      {"measurement": "% Compound remaining", "setting": "[6]; pH = 2.0, 24 h", "result": "94.2 ± 0.9% and 94.2%"},
      {"measurement": "% Compound remaining", "setting": "[6]; pH = 2.0, 48 h", "result": "92.2 ± 0.6", "unit": "%"},
      {"measurement": "% Compound remaining", "setting": "[6]; pH = 2.0, 72 h", "result": "86.8 ± 6.0", "unit": "%"},
      {"measurement": "% Compound remaining", "setting": "[6]; pH = 2.0, 96 h", "result": "77.1 ± 6.5", "unit": "%"},
      {"measurement": "% Compound remaining", "setting": "[6]; pH = 2.0, 168 h", "result": "73.5 ± 4.7", "unit": "%"},
      {"measurement": "% Compound remaining", "setting": "[6]; pH = 7.4, 0 h", "result": "100 ± 0.0", "unit": "%"},
      {"measurement": "% Compound remaining", "setting": "[6]; pH = 7.4, 24 h", "result": "77.3 ± 3.9% and 77.3%"},
      {"measurement": "% Compound remaining", "setting": "[6]; pH = 7.4, 48 h", "result": "71.2 ± 4.5", "unit": "%"},
      {"measurement": "% Compound remaining", "setting": "[6]; pH = 7.4, 72 h", "result": "52.6 ± 3.8", "unit": "%"},
      {"measurement": "% Compound remaining", "setting": "[6]; pH = 7.4, 96 h", "result": "34.7 ± 2.2", "unit": "%"},
      {"measurement": "% Compound remaining", "setting": "[6]; pH = 7.4, 168 h", "result": "18.0 ± 4.2", "unit": "%"},
      {"measurement": "% Compound remaining", "setting": "[6]; pH = 8.0, 0 h", "result": "100 ± 0.0", "unit": "%"},
      {"measurement": "% Compound remaining", "setting": "[6]; pH = 8.0, 24 h", "result": "50.4 ± 2.4% and 50.4%"},
      {"measurement": "% Compound remaining", "setting": "[6]; pH = 8.0, 48 h", "result": "36.1 ± 2.1", "unit": "%"},
      {"measurement": "% Compound remaining", "setting": "[6]; pH = 8.0, 72 h", "result": "19.7 ± 1.6", "unit": "%"}
    ]}
  ]
}
